Laboratory results published in US20100160356A1, “NOVEL CYCLOBUTYL COMPOUNDS AS KINASE INHIBITORS” (priority 2006, published 2010).
Counter-ions that a name gives are not always drawn.

target: T1, IGF1 receptor (IGF1R) (Homo sapiens, UniProt P08069); assay: Inhibition of IGF1R (ELISA assay), IGF1-stimulated autophosphorylation in cells; format: cell-based; conditions: human tumour cells stimulated with IGF1, read-out: IC50 IGF (ELISA)
T1 construct: endogenous in cells; host or cells: MCF-7 or Calu-6
Experimental: The stimulation induces an autophosphorylation of tyrosine residues in the cytoplasmatic IGF1R domain, which triggers signal transduction cascades, which result in inhibition of apoptosis and proliferation of the cells.
The amount of phosphorylated IGF1R is determined by a receptor-specific capture ELISA or an analogous LUMINEX assay. The IGF1R from cell lysates is bound to a 96-well ELISA plate or LUMINEX beads by means of a specific antibody (“capturing”), and the tyrosine phosphorylation is detected using a biotin-labelled anti-phosphotyrosine antibody and a streptavidin-peroxidase conjugate by a chemiluminescence method or by means of a fluorescence-labelled anti-phosphotyrosine antibody.
For determination of the activity of kinase inhibitors, cells are pretreated with increasing concentrations of these compounds for 45 min and subsequently stimulated using IGF1 for 5 min. As internal control, the biological activity of the ligand IGF1 is checked, and a concentration series of an IGF1R reference inhibitor is measured.

Compound | IC50 [µM]
CC(C)c1cccc(-c2cn(C3CC(CN)C3)c3ncnc(N)c23)c1 (stereo not shown) [Compound 16] | 22
NCC1CC(n2cc(-c3cccc(OC(F)(F)F)c3)c3c(N)ncnc32)C1 (stereo not shown) [Compound 18] | 22
CN(Cc1ccccc1)c1cccc(-c2cn(C3CC(CN)C3)c3ncnc(N)c23)c1 (stereo not shown) [Compound 26] | 11
NCC1CC(n2cc(-c3ccc4c(c3)n(Cc3ccccc3)c(=O)n4Cc3ccccc3)c3c(N)ncnc32)C1 (stereo not shown) [Compound 33] | 20
NCC1CC(n2cc(-c3ccncc3)c3c(N)ncnc32)C1 (stereo not shown) [Compound 43] | 27
NCC1CC(n2cc(-c3cccnc3)c3c(N)ncnc32)C1 (stereo not shown) [Compound 44] | 13
NCC1CC(n2cc(-c3cnc4ccccc4c3)c3c(N)ncnc32)C1 (stereo not shown) [Compound 69] | 25
NCC1CC(n2cc(C(Cl)=CCOCc3ccccc3)c3c(N)ncnc32)C1 (stereo not shown) [Compound 71] | 21

target: T2, FAK (focal adhesion kinase) (Homo sapiens, UniProt Q05397); assay: Inhibition of FAK (ELISA assay), FAK phosphorylation in cells; format: cell-based; conditions: human cells with FAK amplification
T2 construct: endogenous in cells; host or cells: Calu-6 or HT-29
Experimental: Activated FAK promotes the invasive growth of tumour cells and inhibits anoikis.
The amount of phosphorylated FAK is determined by a specific capture ELISA or an analogous LUMINEX assay. FAK from cell lysates is bound to a 96-well ELISA plate or LUMINEX beads by means of a specific antibody (“capturing”), and the tyrosine phosphorylation is detected using a biotin-labelled anti-phosphotyrosine antibody and a streptavidin-peroxidase conjugate by a chemiluminescence method or by means of a fluorescence-labelled anti-phosphotyrosine antibody.
For determination of the activity of kinase inhibitors, cells are pretreated with increasing concentrations of these compounds for 45 min, and the FAK phosphorylation is then determined. As internal control, a concentration series of a reference inhibitor is measured.

T2 sequence (Q05397 whole entry): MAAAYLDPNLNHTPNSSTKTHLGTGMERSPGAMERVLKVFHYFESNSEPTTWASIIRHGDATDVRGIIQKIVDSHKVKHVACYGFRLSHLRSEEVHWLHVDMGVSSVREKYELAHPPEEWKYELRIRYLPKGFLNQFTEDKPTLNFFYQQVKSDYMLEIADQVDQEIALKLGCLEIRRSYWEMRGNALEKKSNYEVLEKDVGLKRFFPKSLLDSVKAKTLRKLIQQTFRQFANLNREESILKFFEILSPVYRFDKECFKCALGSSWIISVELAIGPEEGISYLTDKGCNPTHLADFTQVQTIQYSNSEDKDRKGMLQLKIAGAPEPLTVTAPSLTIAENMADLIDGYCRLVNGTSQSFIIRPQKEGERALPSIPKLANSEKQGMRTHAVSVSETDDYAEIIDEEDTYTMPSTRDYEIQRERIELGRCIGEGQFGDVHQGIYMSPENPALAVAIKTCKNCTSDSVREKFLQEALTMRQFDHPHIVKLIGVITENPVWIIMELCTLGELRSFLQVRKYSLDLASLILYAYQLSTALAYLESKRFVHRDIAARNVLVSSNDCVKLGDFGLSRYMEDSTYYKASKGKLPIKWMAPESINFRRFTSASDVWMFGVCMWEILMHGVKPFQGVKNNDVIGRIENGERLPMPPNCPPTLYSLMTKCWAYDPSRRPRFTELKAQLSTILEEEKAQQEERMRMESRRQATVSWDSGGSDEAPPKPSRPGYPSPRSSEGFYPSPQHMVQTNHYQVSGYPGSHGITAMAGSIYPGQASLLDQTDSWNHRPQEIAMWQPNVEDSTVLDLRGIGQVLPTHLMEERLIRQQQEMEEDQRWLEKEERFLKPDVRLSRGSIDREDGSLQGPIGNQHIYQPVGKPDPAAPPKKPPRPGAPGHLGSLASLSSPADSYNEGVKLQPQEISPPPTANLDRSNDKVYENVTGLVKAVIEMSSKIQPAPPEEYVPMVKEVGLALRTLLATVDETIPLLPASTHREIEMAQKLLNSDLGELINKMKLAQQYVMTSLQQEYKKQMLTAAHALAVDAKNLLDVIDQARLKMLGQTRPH

Compound | IC50 [µM]
CS(=O)(=O)Nc1cccc(-c2cn(C3CC(CN)C3)c3ncnc(N)c23)c1 (stereo not shown) [Compound 13] | 28
CC(C)c1cccc(-c2cn(C3CC(CN)C3)c3ncnc(N)c23)c1 (stereo not shown) [Compound 16] | 28.5
NCC1CC(n2cc(-c3cccc(C(F)(F)F)c3)c3c(N)ncnc32)C1 (stereo not shown) [Compound 17] | 25
NCC1CC(n2cc(-c3cccc(OC(F)(F)F)c3)c3c(N)ncnc32)C1 (stereo not shown) [Compound 18] | 17.5
NCC1CC(n2cc(-c3cccc([N+](=O)[O-])c3)c3c(N)ncnc32)C1 (stereo not shown) [Compound 20] | 4
CC(=O)Nc1cccc(-c2cn(C3CC(CN)C3)c3ncnc(N)c23)c1 (stereo not shown) [Compound 21] | 17
NCC1CC(n2cc(-c3ccc4c(c3)n(Cc3ccccc3)c(=O)n4Cc3ccccc3)c3c(N)ncnc32)C1 (stereo not shown) [Compound 33] | 27
Nc1ncnc2c1c(-c1ccc3c(c1)OCCO3)cn2C1CC(CN2CCCC2)C1 (stereo not shown) [Compound 54] | 28
N#Cc1cccc(-c2cn(C3CC(CN)C3)c3ncnc(N)c23)c1 (stereo not shown) [Compound 57] | 25
N#Cc1ccc(-c2cn(C3CC(CN)C3)c3ncnc(N)c23)cc1F (stereo not shown) [Compound 59] | 4.1
NCC1CC(n2cc(-c3ccc4occc4c3)c3c(N)ncnc32)C1 (stereo not shown) [Compound 63] | 0.63
NCC1CC(n2cc(-c3cccc4occc34)c3c(N)ncnc32)C1 (stereo not shown) [Compound 65] | 0.42
NCC1CC(n2cc(-c3cnc4ccccc4c3)c3c(N)ncnc32)C1 (stereo not shown) [Compound 69] | 8

target: VEGF-2 (Homo sapiens, UniProt P35968); assay: Inhibition of VEGF-2 (flashplate assay); format: biochemical; conditions: flashplate method
Experimental: (§1) The test plates used are 384-well flashplate microtitre plates from Perkin Elmer (USA). The components of the kinase reaction are pipetted into the assay plate. The VEGF-2 kinase is incubated for 3 hr. with radioactively labelled ^33P-ATP in the presence and absence of test substances in a total volume of 100 μl at room temperature together with biotinylated poly(Glu, Tyr)4:1. The reaction is terminated using 25 μl of a 200 mM EDTA solution. After incubation for a further 30 min at room temperature, the supernatants are removed by suction, and the wells are washed three times with 100 μl of 0.9% NaCl solution each time. The radioactivity is measured using a Topcount scintillation counter (PerkinElmer, USA). IC50 values are calculated using the RS1 computer program.

Sequence of VEGF-2 (P35968 20-1356): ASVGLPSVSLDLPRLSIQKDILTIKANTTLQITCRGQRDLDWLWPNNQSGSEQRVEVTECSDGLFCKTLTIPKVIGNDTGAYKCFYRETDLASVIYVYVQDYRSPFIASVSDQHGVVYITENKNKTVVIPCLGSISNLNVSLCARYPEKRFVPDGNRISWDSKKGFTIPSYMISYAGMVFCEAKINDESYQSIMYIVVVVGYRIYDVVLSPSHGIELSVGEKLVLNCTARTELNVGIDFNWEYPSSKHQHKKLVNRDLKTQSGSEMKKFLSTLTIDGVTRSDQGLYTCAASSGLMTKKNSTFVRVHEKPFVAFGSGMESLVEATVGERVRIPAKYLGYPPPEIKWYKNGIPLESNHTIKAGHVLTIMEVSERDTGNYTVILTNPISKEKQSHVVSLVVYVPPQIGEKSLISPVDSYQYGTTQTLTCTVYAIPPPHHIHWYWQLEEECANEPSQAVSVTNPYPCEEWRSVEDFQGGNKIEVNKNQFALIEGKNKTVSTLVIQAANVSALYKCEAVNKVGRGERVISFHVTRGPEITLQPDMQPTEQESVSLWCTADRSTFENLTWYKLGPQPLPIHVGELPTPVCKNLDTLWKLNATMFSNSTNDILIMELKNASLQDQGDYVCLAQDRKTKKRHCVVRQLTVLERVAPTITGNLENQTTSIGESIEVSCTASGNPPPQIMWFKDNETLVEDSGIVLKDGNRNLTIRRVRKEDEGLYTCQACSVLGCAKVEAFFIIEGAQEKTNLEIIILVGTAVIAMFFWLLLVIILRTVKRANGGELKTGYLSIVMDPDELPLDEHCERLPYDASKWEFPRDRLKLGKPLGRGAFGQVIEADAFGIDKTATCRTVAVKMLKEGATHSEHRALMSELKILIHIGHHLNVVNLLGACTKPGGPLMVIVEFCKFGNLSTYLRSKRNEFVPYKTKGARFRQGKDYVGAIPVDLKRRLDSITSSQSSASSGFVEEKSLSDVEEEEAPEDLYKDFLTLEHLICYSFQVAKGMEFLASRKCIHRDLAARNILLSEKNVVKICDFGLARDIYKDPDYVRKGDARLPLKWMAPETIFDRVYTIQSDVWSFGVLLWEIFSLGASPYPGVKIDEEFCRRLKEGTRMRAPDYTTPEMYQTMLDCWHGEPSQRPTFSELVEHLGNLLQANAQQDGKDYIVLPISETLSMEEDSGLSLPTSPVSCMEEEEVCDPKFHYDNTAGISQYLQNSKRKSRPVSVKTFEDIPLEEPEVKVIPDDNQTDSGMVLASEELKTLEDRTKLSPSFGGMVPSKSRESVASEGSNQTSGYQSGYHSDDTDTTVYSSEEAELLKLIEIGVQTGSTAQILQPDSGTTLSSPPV

Compound | IC50 [µM]
CS(=O)(=O)Nc1cccc(-c2cn(C3CC(CN)C3)c3ncnc(N)c23)c1 (stereo not shown) [Compound 13] | 6.5
CN(Cc1ccccc1)c1cccc(-c2cn(C3CC(CN)C3)c3ncnc(N)c23)c1 (stereo not shown) [Compound 26] | 2.7
N#Cc1ccc(-c2cn(C3CC(CN)C3)c3ncnc(N)c23)cc1N (stereo not shown) [Compound 58] | 0.61
NCC1CC(n2cc(-c3ccc4occc4c3)c3c(N)ncnc32)C1 (stereo not shown) [Compound 63] | 0.29
NCC1CC(n2cc(-c3cccc4occc34)c3c(N)ncnc32)C1 (stereo not shown) [Compound 65] | 1.32

target: TIE2 (Homo sapiens, UniProt Q02763); assay: Inhibition of TIE2 (flashplate assay); format: biochemical; conditions: flashplate method
Experimental: B4: inhibition of T1E2 (Flashplate Assay)
as §1, with “TIE2” for “VEGF-2”

Sequence of TIE2 (Q02763 23-1124, species assumed): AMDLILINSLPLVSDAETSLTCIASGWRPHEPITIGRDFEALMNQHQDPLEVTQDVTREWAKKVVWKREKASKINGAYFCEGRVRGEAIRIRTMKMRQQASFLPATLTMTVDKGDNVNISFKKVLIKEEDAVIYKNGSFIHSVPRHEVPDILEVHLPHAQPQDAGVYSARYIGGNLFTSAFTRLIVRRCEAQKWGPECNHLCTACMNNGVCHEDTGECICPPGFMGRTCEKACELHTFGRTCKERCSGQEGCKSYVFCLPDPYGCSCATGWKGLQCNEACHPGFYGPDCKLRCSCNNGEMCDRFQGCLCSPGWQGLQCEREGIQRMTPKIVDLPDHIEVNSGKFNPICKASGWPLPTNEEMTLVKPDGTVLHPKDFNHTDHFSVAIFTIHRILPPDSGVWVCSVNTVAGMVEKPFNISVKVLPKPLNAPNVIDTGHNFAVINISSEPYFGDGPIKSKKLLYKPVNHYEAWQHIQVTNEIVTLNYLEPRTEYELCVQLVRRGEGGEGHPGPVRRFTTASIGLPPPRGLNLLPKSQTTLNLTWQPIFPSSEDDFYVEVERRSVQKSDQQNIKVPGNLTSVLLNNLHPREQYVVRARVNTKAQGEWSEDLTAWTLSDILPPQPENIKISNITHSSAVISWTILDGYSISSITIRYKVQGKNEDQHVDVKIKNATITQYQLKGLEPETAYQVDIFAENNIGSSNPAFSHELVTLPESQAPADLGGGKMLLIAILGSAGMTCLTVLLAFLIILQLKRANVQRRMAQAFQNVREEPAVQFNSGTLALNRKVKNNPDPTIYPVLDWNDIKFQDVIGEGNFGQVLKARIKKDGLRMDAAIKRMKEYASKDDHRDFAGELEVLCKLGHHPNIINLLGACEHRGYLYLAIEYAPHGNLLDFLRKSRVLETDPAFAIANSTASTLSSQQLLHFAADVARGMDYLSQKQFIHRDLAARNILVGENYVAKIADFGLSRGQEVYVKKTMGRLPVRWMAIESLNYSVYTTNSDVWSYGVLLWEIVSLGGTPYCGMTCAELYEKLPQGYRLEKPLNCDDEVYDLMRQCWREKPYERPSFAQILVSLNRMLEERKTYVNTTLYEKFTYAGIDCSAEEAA

Compound | IC50 [µM]
NCC1CC(n2cc(-c3ccc4c(c3)n(Cc3ccccc3)c(=O)n4Cc3ccccc3)c3c(N)ncnc32)C1 (stereo not shown) [Compound 33] | 0.37
NCC1CC(n2cc(-c3cccc(N(CCCCO)Cc4ccccc4)c3)c3c(N)ncnc32)C1 (stereo not shown) [Compound 61] | 3.9
NCC1CC(n2cc(-c3ccc4occc4c3)c3c(N)ncnc32)C1 (stereo not shown) [Compound 63] | 1.8
NCC1CC(n2cc(-c3cccc4occc34)c3c(N)ncnc32)C1 (stereo not shown) [Compound 65] | 2.9

target: PDGFRβ (Homo sapiens, UniProt P09619); assay: Inhibition of PDGFRβ (flashplate assay); format: biochemical; conditions: flashplate method
Experimental: as §1, with “are 96-well” for “are 384-well”, “The PDGFRβ” for “The VEGF-2”, “temperature (here autophosphorylation of the kinase).” for “temperature together with biotinylated poly(Glu, Tyr)4:1.”, “using 150” for “using 25”, “a 60” for “a 200”, “with 200” for “with 100”

Sequence of PDGFRβ (P09619 33-1106, species assumed): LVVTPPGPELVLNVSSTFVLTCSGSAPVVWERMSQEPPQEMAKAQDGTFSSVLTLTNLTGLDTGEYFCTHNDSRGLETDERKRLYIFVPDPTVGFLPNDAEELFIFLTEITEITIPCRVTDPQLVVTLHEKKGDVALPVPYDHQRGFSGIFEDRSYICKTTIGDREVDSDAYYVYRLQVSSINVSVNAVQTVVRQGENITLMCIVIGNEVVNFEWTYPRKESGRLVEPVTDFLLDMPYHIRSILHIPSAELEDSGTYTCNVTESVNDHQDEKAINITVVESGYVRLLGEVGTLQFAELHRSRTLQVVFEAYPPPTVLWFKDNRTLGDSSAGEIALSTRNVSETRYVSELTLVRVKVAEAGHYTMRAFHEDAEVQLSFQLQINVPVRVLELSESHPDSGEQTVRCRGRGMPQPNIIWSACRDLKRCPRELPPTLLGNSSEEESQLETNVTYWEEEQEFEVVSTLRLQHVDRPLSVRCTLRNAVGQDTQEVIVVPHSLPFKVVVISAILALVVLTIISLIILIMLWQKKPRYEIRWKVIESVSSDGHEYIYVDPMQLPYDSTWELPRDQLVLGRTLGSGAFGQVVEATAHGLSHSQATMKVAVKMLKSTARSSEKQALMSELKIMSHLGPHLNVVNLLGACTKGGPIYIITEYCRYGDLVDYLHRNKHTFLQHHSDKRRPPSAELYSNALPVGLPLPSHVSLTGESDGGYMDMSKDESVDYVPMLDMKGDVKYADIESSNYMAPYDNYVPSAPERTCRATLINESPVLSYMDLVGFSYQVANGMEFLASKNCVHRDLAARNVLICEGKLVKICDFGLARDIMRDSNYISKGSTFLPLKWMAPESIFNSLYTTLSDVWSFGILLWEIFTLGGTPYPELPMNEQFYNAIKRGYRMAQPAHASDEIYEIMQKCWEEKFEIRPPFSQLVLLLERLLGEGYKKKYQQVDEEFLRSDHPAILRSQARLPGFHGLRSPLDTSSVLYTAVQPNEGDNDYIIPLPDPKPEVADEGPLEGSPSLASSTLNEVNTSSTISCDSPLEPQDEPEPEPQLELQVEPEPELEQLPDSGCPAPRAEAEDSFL

Compound | IC50 [µM]
CS(=O)(=O)Nc1cccc(-c2cn(C3CC(CN)C3)c3ncnc(N)c23)c1 (stereo not shown) [Compound 13] | 5.8
NCC1CC(n2cc(-c3ccc4c(c3)n(Cc3ccccc3)c(=O)n4Cc3ccccc3)c3c(N)ncnc32)C1 (stereo not shown) [Compound 33] | 6.85
N#Cc1ccc(-c2cn(C3CC(CN)C3)c3ncnc(N)c23)cc1N (stereo not shown) [Compound 58] | 0.43
N#Cc1ccc(-c2cn(C3CC(CN)C3)c3ncnc(N)c23)cc1F (stereo not shown) [Compound 59] | 0.62
NCC1CC(n2cc(-c3ccc4occc4c3)c3c(N)ncnc32)C1 (stereo not shown) [Compound 63] | 0.31
NCC1CC(n2cc(-c3cccc4occc34)c3c(N)ncnc32)C1 (stereo not shown) [Compound 65] | 0.94

target: T3, TGFβR1 (Homo sapiens, UniProt P36897); assay: Inhibition of TGFβR1 (flashplate assay); format: biochemical; conditions: flashplate method
T3 sequence (P36897 34-503): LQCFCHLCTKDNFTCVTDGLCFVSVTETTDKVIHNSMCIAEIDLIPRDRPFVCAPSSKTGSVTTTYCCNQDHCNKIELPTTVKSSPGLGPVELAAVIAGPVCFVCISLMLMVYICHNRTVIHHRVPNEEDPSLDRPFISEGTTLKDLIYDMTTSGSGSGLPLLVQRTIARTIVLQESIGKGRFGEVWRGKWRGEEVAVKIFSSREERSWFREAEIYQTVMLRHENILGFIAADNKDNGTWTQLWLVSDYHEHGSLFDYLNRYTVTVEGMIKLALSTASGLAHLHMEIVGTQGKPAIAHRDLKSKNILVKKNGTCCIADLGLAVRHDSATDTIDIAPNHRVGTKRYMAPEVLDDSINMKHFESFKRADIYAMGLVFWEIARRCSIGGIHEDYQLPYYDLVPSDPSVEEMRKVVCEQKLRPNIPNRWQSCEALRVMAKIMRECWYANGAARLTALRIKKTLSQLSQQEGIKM
Experimental: The test is carried out as described in Example B1b for IGF1R. A biotinylated is added to the TGFβR1 kinase.
The kinase assay is carried out as a 384-well flashplate assay.
The components of the kinase reaction are pipetted into the assay plate. The TGFβR1 kinase is incubated for 45 min with radioactively labelled ^33P-ATP in the presence and absence of test substances together with biotinylated substrate in a total volume of 35 μl. The reaction is terminated using 25 μl of 200 mM EDTA solution, removed by suction after 30 min at room temperature, and the wells are washed with three times with 100 μl of 0.9% NaCl solution each time. The radioactivity is measured using a Topcount scintillation counter (PerkinElmer, USA). IC50 values are calculated using the RS1 computer program.

Compound | IC50 [µM]
CC(C)c1cccc(-c2cn(C3CC(CN)C3)c3ncnc(N)c23)c1 (stereo not shown) [Compound 16] | 1.5
NCC1CC(n2cc(-c3cccc(C(F)(F)F)c3)c3c(N)ncnc32)C1 (stereo not shown) [Compound 17] | 2.7
NCC1CC(n2cc(-c3cccc(OC(F)(F)F)c3)c3c(N)ncnc32)C1 (stereo not shown) [Compound 18] | 1
NCC1CC(n2cc(-c3cccc([N+](=O)[O-])c3)c3c(N)ncnc32)C1 (stereo not shown) [Compound 20] | 0.7
CC(=O)Nc1cccc(-c2cn(C3CC(CN)C3)c3ncnc(N)c23)c1 (stereo not shown) [Compound 21] | 6.5
CN(Cc1ccccc1)c1cccc(-c2cn(C3CC(CN)C3)c3ncnc(N)c23)c1 (stereo not shown) [Compound 26] | 1.1
NCC1CC(n2cc(-c3ccncc3)c3c(N)ncnc32)C1 (stereo not shown) [Compound 43] | 0.15
NCC1CC(n2cc(-c3cccnc3)c3c(N)ncnc32)C1 (stereo not shown) [Compound 44] | 0.95
N#Cc1cccc(-c2cn(C3CC(CN)C3)c3ncnc(N)c23)c1 (stereo not shown) [Compound 57] | 6.1
N#Cc1ccc(-c2cn(C3CC(CN)C3)c3ncnc(N)c23)cc1N (stereo not shown) [Compound 58] | 1.1
N#Cc1ccc(-c2cn(C3CC(CN)C3)c3ncnc(N)c23)cc1F (stereo not shown) [Compound 59] | 8.3
NCC1CC(n2cc(-c3cccc(C(N)=O)c3)c3c(N)ncnc32)C1 (stereo not shown) [Compound 60] | 0.53
NCC1CC(n2cc(-c3ccc4occc4c3)c3c(N)ncnc32)C1 (stereo not shown) [Compound 63] | 0.055
NCC1CC(n2cc(-c3cccc4occc34)c3c(N)ncnc32)C1 (stereo not shown) [Compound 65] | 0.045
NCC1CC(n2cc(-c3cnc4ccccc4c3)c3c(N)ncnc32)C1 (stereo not shown) [Compound 69] | 0.039
NCC1CC(n2cc(C(Cl)=CCOCc3ccccc3)c3c(N)ncnc32)C1 (stereo not shown) [Compound 71] | 5.5

system: not given; assay: not given; conditions: not given

Compound | melting point
NCC1CC(n2cc(I)c3c(N)ncnc32)C1 (stereo not shown) (as salt: HCl) [Compound 52] | 241 to 242.5 °C
C[Si](C)(COc1cccc(-c2cn(C3CC(CN)C3)c3ncnc(N)c23)c1)c1ccccc1 (stereo not shown) (as salt: TFA) [Compound 8] | 172 to 174.5 °C
C[Si](C)(C)COc1cccc(-c2cn(C3CC(CN)C3)c3ncnc(N)c23)c1 (stereo not shown) (as salt: TFA) [Compound 9] | 83 to 84 °C
NCC1CC(n2cc(-c3cc4ccccc4o3)c3c(N)ncnc32)C1 (stereo not shown) (as salt: TFA) [Compound 37] | 202.5 to 204.5 °C
NCC1CC(n2cc(-c3ccco3)c3c(N)ncnc32)C1 (stereo not shown) (as salt: TFA) [Compound 38] | 207.5 to 209 °C
NCC1CC(n2cc(-c3cccs3)c3c(N)ncnc32)C1 (stereo not shown) (as salt: TFA) [Compound 41] | 206 to 207.5 °C
NCC1CC(n2cc(-c3ccncc3)c3c(N)ncnc32)C1 (stereo not shown) (as salt: TFA) [Compound 43] | > 195 °C (dec.)
N#Cc1cccc(-c2cn(C3CC(CN)C3)c3ncnc(N)c23)c1 (stereo not shown) (as salt: TFA) [Compound 57] | 186.5 to 189 °C
CS(=O)(=O)Nc1cccc(-c2cn(C3CC(CN)C3)c3ncnc(N)c23)c1 (stereo not shown) [Compound 13] | 82 to 84 °C
CC(C)c1cccc(-c2cn(C3CC(CN)C3)c3ncnc(N)c23)c1 (stereo not shown) [Compound 16] | 93 to 94.5 °C
NCC1CC(n2cc(-c3cccc(OC(F)(F)F)c3)c3c(N)ncnc32)C1 (stereo not shown) [Compound 18] | 88 to 90 °C
NCC1CC(n2cc(-c3cccc([N+](=O)[O-])c3)c3c(N)ncnc32)C1 (stereo not shown) [Compound 20] | 53 to 55 °C
CN(Cc1ccccc1)c1cccc(-c2cn(C3CC(CN)C3)c3ncnc(N)c23)c1 (stereo not shown) [Compound 26] | 197 to 200 °C
NCC1CC(n2cc(-c3ccc4c(c3)n(Cc3ccccc3)c(=O)n4Cc3ccccc3)c3c(N)ncnc32)C1 (stereo not shown) [Compound 33] | 72.5 to 74 °C
NCC1CC(n2cc(-c3ccc4occc4c3)c3c(N)ncnc32)C1 (stereo not shown) [Compound 63] | 156 to 159 °C
